Laboratory results: article PMC10460844, “Real‐Time Monitoring of Multitarget Antimicrobial Mechanisms of Peptoids Using Label‐Free Imaging with Optical Diffraction Tomography” (Advanced Science, 2023)
Where two headings read alike, the source gives them in different places. Square brackets hold non-standard residues; d marks the D form. Peptide text beside a SMILES is read from it. Gly(N(CH2)2(3-indolyl)) = O=C(O)CNCCc1c[nH]c2ccccc12; Nspe = C[C@H](NCC(=O)O)c1ccccc1; Nlys = NCCCCNCC(=O)O

Tests used:
[1] = system: MRC-5 human lung fibroblast cells; format: cell-based
Procedure: 4. Cell culture and cytotoxicity test using MTS assay
(Seoul, South Korea), human keratinocytes (HaCaT) were provided by the Skin Research Institute R&D Center of Amore Pacific Company (Yongin, South Korea). All cells were grown in Dulbecco's modified Eagle’s medium (DMEM) supplemented with 10% fetal bovine serum at 37 °C in an atmosphere containing 5% CO2. The 3-(4,5-dimethylthiazol-2- […]
assays were used to determine the effects of peptoids on cell growth.[4] Aliquots (100 µL) of media containing 1.3×10^4 MRC-5 cells/mL or 3×10^4 HaCaT cells/mL were distributed into each well of a 96-well plate (Eppendorf, Hamburg, Germany). The cells were allowed to attach and were grown in a humidified atmosphere containing 5% CO2 at 37 °C for 24 h.
When the cell density reached approximately 70% confluency, the medium was replaced with serial dilutions of the peptoid stock in DMEM and incubated for an additional 24 h. At this point, 20 µL of the CellTiter 96 aqueous non-radioactive cell proliferation assay reagent (Promega, Madison, WI, USA), which contains the tetrazolium compound, was added to each well. Plates were incubated for 4 h at 37 °C to allow time for metabolism. The MTS-formazan products in viable cells were measured at 490 nm using a microplate reader, and the percentage of cell viability (%) was calculated by comparing readings to the values of untreated wells. Percentage values of cell viability were calculated as A/(A control)×100, where A is the absorbance of the test well and A control is the average absorbance of wells containing untreated cells. […]

E. coli ATCC 25922 [2] = experiment: NPN uptake assay (outer membrane); format: cell-based; settings: E. coli ATCC 25922, 5 mM HEPES pH 7.2, 10 µM NPN, fluorescence
Procedure: 14. In vitro biological assays […]
The ability of peptoids to increase the permeability of the outer membrane of Gram-negative bacteria was determined by measuring the incorporation of the NPN fluorescent dye into the outer membrane of E. coli ATCC 25922. Bacterial cells were suspended to a final concentration of OD600 = 0.05 in 5 mM HEPES buffer, pH 7.2, containing 5 mM KCN. Then […]
200 μL NPN dye was added to wells of a 96 well plate to produce a final concentration of 10 μM, and the background fluorescence was recorded (λex = 350 nm, λem = 420 nm). Aliquots of peptoids were added to the well, and fluorescence was recorded as a function of time until there was no further increase in fluorescence. Increases of the permeability of the outer membrane after the addition of peptoids was reflected by increased fluorescence values as a result of NPN incorporation into the membrane. […]

E. coli ATCC 25922 [3] = experiment: Thioflavin S fluorescence imaging of intracellular aggregation; format: cell-based; settings: 29 and peptoid 1 at 4 × MIC, control peptides 2 × MIC
P. aeruginosa MDR-198 = format: cell-based
E. coli ESBL 63103 = format: cell-based
K. pneumonia ESBL 61962 = format: cell-based
S. aureus MRSA C623 = format: cell-based
[4] = SAXS of peptoid self-assembly in aqueous environment; format: physicochemical; settings: for self-assembly state in aqueous solution: aqueous environment
Procedure: Prior to the experiment, peptoids were dissolved in Tris buffer (50 mM, pH 7.4). This peptoid stock solution (5 mg mL^−1) was diluted as needed. Unilamellar lipid vesicles were prepared using synthetic DMPC, DMPG, and DMPE‐PEG at a 75:22.5:2.5 molar ratio. The lipids were first dissolved in a 1:3 (v/v) methanol:chloroform solution. To make a lipid film, the organic solvents were removed completely under vacuum using a rotary evaporator with a Vacuubrand vacuum pump. The resulting lipid film was hydrated at 35 °C using Tris buffer (50 mM, pH 7.4). After hydration, the dispersion was sonicated for 15 min to promote the formation of smaller unilamellar vesicles. This was followed by the extrusion of lipid vesicles through a 100 nm pore diameter polycarbonate filter (>21 times) using an Avanti mini‐extruder fitted with two 1 mL airtight syringes. Immediately before the SAXS data collection, a peptoid solution with the adequate concentration for the target lipid:peptoid ratio was mixed 1:1 with the lipid solution (5 mg mL^−1) using a micropipette. SAXS experiments were performed at the automated BM29 bioSAXS beamline at the European Synchrotron Radiation Facility (ESRF) in Grenoble, France.^[ [47] ^] […] All experiments were conducted at 37 °C. The data set was calibrated to an absolute intensity scale using water as a primary standard. Samples (45 µL) were run through a capillary using the flow mode of the automated sample changer.^[ [48] ^] SAXS data was collected in ten successive frames of 0.5 s each to monitor radiation damage, and the data reduction was carried out using BioXTAS RAW program.^[ [49] ^]
All scattering models were implemented and fitted to the experimental SAXS data using the QtiSAS software.^[ [50] ^]

[5] = SAXS, cylindrical α-helical bundle model, 5 mg mL^−1

Row | SMILES | LC50 MRC-5 ([1]; MTS assay, 24 h exposure in DMEM, concentration killing 50% of cells) [µM] | outer membrane disruption (NPN uptake) (E. coli ATCC 25922 [2]) | Th S fluorescence (intracellular biomass aggregation) (E. coli ATCC 25922 [3]) | LC50 MRC-5 [1] [µM] | MIC P. aeruginosa MDR-198 (P. aeruginosa MDR-198) [µM] | MIC E. coli ESBL 63103 (E. coli ESBL 63103) [µM] | MIC K. pneumonia ESBL 61962 (K. pneumonia ESBL 61962) [µM] | MIC S. aureus MRSA C623 (S. aureus MRSA C623) [µM] | self-assembly state in aqueous solution ([4]; SAXS, 5 mg mL^−1) | fraction of dimers [4, 5] [%] | fraction of monomers [4, 5] [%] | fraction of trimers [4, 5] [%] | fraction of big clusters ([4]; SAXS fit, depending on concentration) | radius of gyration ([4]; SAXS, Tris buffer 50 mM pH 7.4, 37 °C, random Gaussian chain model) [Å]
1 | C[C@@H](c1ccccc1)N(CC(N)=O)C(=O)CN(C(=O)CN(CCCCN)C(=O)CN(C(=O)CN(C(=O)CN(CCCCN)C(=O)CN(C(=O)CN(C(=O)CN(CCCCN)C(=O)CN(C(=O)CN(C(=O)CNCCCCN)[C@@H](C)c1ccccc1)[C@@H](C)c1ccccc1)[C@@H](C)c1ccccc1)[C@@H](C)c1ccccc1)[C@@H](C)c1ccccc1)[C@@H](C)c1ccccc1)[C@@H](C)c1ccccc1 [peptoid 1, reference compound] (H-[Nlys][Nspe][Nspe][Nlys][Nspe][Nspe][Nlys][Nspe][Nspe][Nlys][Nspe][Nspe]-NH2) | 8.1 | strongly disrupted | enhanced Th S fluorescence |  |  |  |  |  |  |  |  |  |  | 
2 | C[C@@H](c1ccccc1)N(CC(=O)N(CCCCN)CC(=O)N(CC(=O)N(CC(=O)N(CCCCN)CC(=O)N(CC(=O)N(CC(=O)N(CCCCN)CC(=O)N(CCc1c[nH]c2ccccc12)CC(=O)N(CCc1c[nH]c2ccccc12)CC(N)=O)[C@@H](C)c1ccccc1)[C@@H](C)c1ccccc1)[C@@H](C)c1ccccc1)[C@@H](C)c1ccccc1)C(=O)CN(C(=O)CNCCCCN)[C@@H](C)c1ccccc1 [peptoid 11] (H-[Nlys][Nspe][Nspe][Nlys][Nspe][Nspe][Nlys][Nspe][Nspe][Nlys][Gly(N(CH2)2(3-indolyl))][Gly(N(CH2)2(3-indolyl))]-NH2) |  | strongly disrupted |  | 6.9 | 6.3 to 12.5 | 3.1 to 6.3 | 6.3 to 12.5 | 3.1 to 6.3 | larger defined nanostructures | 10 | 30 | 60 |  | 
3 | C[C@@H](c1ccccc1)N(CC(=O)N(CCCCN)CC(=O)N(CCc1c[nH]c2ccccc12)CC(=O)N(CCc1c[nH]c2ccccc12)CC(N)=O)C(=O)CN(CCCCN)C(=O)CN(CCCCN)C(=O)CN(C(=O)CN(C(=O)CN(CCCCN)C(=O)CN(C(=O)CN(C(=O)CNCCCCN)[C@@H](C)c1ccccc1)[C@@H](C)c1ccccc1)[C@@H](C)c1ccccc1)[C@@H](C)c1ccccc1 [peptoid 29] (H-[Nlys][Nspe][Nspe][Nlys][Nspe][Nspe][Nlys][Nlys][Nspe][Nlys][Gly(N(CH2)2(3-indolyl))][Gly(N(CH2)2(3-indolyl))]-NH2) |  | somewhat lower | significantly increased emission |  | 6.3 to 12.5 | ≥25 | >25 | 3.1 to 6.3 | remained monomeric and unstructured |  |  |  | 0.003–0.008 | 10
